The term clearance denotes the volume of plasma or blood freed of the substance per unit of time. A higher clearance goes with a high capacity for elimination. One may read the AUC(0-t) as the area under the concentration-time curve up to a stated or last time point. A lower AUC(0-t) goes with low exposure. As a reminder, the half-life is the time in which the quantity being followed falls by half. Lower therefore signals rapid decline. Broadly, the Cmax is the maximum level reached in the sampled fluid or tissue. What is called Tmax is the time at which the peak concentration occurs. Usually bioavailability stands for dose-corrected exposure relative to a reference, in per cent. Read a high bioavailability as good availability. In general, AUC refers to the area under the concentration-time curve, a measure of exposure.

The nature of series [1]: Metabolic stability in rat liver microsomes by high-throughput screening based assay. In kind it is ADME, microsome. Conditions: read-out: Stability. A general note: Liver microsomes are vesicles of endoplasmic reticulum, rich in cytochrome P450 enzymes.
The nature of series [2]: Metabolic stability in mouse liver microsomes by high-throughput screening based assay. In kind it is ADME, microsome. The note with it: read-out: Stability.
Series [3] can be described thus: Effective permeability of the compound by PAMPA. The note with it: read-out: Peff. In kind it is ADME. On the technique in general: The PAMPA barrier holds no transporters, so it reflects passive diffusion.
Series [4] can be described thus: Metabolic stability in human liver microsomes by high-throughput screening based assay. The note with it: read-out: Stability. In kind it is ADME, microsome.
Series [5] can be described thus: Plasma clearance in ICR mouse at 2 mg/kg, iv. In kind it is ADME, organism-based.
Series [6] can be described thus: AUC (0 to 24 hrs) in ICR mouse at […], po. In kind it is ADME, organism-based. More on the design: time < 24 hr, dose 7.9 mg/kg, route oral. The note with it: in vivo.
Series [7] can be described thus: AUC (0 to 24 hrs) in ICR mouse at 2 mg/kg, iv. In kind it is ADME, organism-based. On the set-up: time < 24 hr, dose 2 mg/kg, route intravenous. Conditions: ICR, in vivo.
Series [8] is described as follows: Half life in ICR mouse at […], po. The note with it: in vivo. In kind it is ADME, organism-based.
Series [9] can be described thus: Cmax in ICR mouse at 2 mg/kg, iv. In kind it is ADME, organism-based. More on the design: dose 2 mg/kg, route intravenous. The note with it: in vivo.
A short description of series [10]: Cmax in ICR mouse at […], po. In kind it is ADME, organism-based. On the set-up: dose 7.9 mg/kg, route oral. The note with it: in vivo.
A short description of series [11]: Tmax in ICR mouse at […], po. In kind it is ADME, organism-based. The note with it: in vivo.
A short description of series [12]: Oral bioavailability in ICR mouse at […]. In kind it is ADME, organism-based. Conditions: in vivo.
Series [13] in a line: Half life in ICR mouse at 2 mg/kg, iv. In kind it is ADME, organism-based. The note with it: in vivo.
Series [14] is described as follows: Volume of distribution at steady state in ICR mouse at 2 mg/kg, iv. In kind it is ADME, organism-based. The note with it: in vivo, read-out: Vdss.
Series [15] is described as follows: Oral bioavailability in ICR mouse at 10 mg/kg. The note with it: in vivo. In kind it is ADME, organism-based.
Series [16] in a line: Half life in ICR mouse at 10 mg/kg, po. In kind it is ADME, organism-based. The note with it: in vivo.
Series [17] in a line: Tmax in ICR mouse at 10 mg/kg, po. In kind it is ADME, organism-based. Conditions: in vivo.
The nature of series [18]: Cmax in ICR mouse at 10 mg/kg, po. Conditions: in vivo. In kind it is ADME, organism-based. On the set-up: dose 10 mg/kg, route oral.
Series [19] is described as follows: AUC (0 to 24 hrs) in ICR mouse at 10 mg/kg, po. In kind it is ADME, organism-based. More on the design: time < 24 hr, dose 10 mg/kg, route oral. Conditions: in vivo.
The subject of series [20] is Mus musculus. Put plainly: Oral bioavailability in ICR mouse at 12.2 mg/kg. Conditions: in vivo. In kind it is ADME, organism-based.
Series [21] in a line: Cmax in ICR mouse at 12.2 mg/kg, po. In kind it is ADME, organism-based. More on the design: dose 12.2 mg/kg, route oral. The note with it: in vivo.
Series [22] can be described thus: Tmax in ICR mouse at 12.2 mg/kg, po. In kind it is ADME, organism-based. Conditions: in vivo.
The subject of series [23] is Mus musculus. As to the kind of experiment: AUC (0 to 24 hrs) in ICR mouse at 12.2 mg/kg, po. In kind it is ADME, organism-based. On the set-up: dose 12.2 mg/kg, time < 24 hr, route oral. Conditions: in vivo.
Series [24] can be described thus: Cmax in ICR mouse at 1 mg/kg, iv. In kind it is ADME, organism-based. On the set-up: dose 1 mg/kg, route intravenous. The note with it: in vivo.
Series [25] is described as follows: Volume of distribution at steady state in ICR mouse at 1 mg/kg, iv. In kind it is ADME, organism-based. Conditions: in vivo, read-out: Vdss.
The subject of series [26] is Mus musculus. As to the kind of experiment: AUC (0 to 24 hrs) in ICR mouse at 1 mg/kg, iv. In kind it is ADME, organism-based. On the set-up: time < 24 hr, dose 1 mg/kg, route intravenous. The note with it: in vivo.

In the case of `CS(=O)(=O)c1nn(Cc2nc3cc(Cl)ccc3n2CCCCC(F)(F)F)c2cnccc12`, the CLhep predicted is 6.15 mL/min/kg in series [1], 22.7 mL/min/kg in series [2] and 4.57 mL/min/kg in series [4]. For the same molecule, in series [3], the Papp is 0.95 ×10⁻⁶ cm/s.

Regarding `CS(=O)(=O)CCn1c(Cn2cc(S(C)(=O)=O)c3ccccc32)nc2ccccc21`, the CLhep predicted in series [2] is 19.7 mL/min/kg; in series [4] it was 7.33 to 9 mL/min/kg. Moreover, the Papp in [3] was 4.87 ×10⁻⁶ cm/s.

As to `CS(=O)(=O)CCCc1c(CN2C(=O)C3(CC3)c3ccncc32)nc2cc(Cl)ccn12`, the CLhep predicted in [2] was 83.3 mL/min/kg; in series [4], 11.7 mL/min/kg.

With `CC(C)(O)CCn1c(Cn2nc(S(C)(=O)=O)c3ccncc32)nc2cc(Cl)ccc21`, the clearance in series [5] is 61.1 mL/min/kg. The CLhep predicted in [1] was 8.45 mL/min/kg; in [2], 26.6 mL/min/kg; in series [4] it was 2.95 mL/min/kg. The AUC(0-t) at 24 h in series [6] was determined as 546 ng·h/mL; in [7], 701 ng·h/mL. Moreover, the half-life in series [8] is 119 min; in series [13], 28.2 min. In addition, the Cmax came to 894 ng/mL in series [9] and 324 ng/mL in series [10]. Further, the Tmax in series [11] worked out at 15 min. The same molecule returned a bioavailability in series [12] of 32.5%. In addition, the Papp in series [3] came out at 2.39 ×10⁻⁶ cm/s. Further, the Vd in [14] worked out at 1.93 L/kg.

In the case of `CS(=O)(=O)c1nn(Cc2nc3cc(Cl)ccc3n2CCOCCO)c2cnccc12`, the results for the CLhep predicted in [1], in series [2] and in [4] were 13.7 mL/min/kg, 14.2 mL/min/kg and 1.91 mL/min/kg, respectively. For the same molecule, the Papp in [3] was determined as 3.12 ×10⁻⁶ cm/s.

In the case of `CS(=O)(=O)CCCn1c(Cn2nc(S(C)(=O)=O)c3ccncc32)nc2cc(Cl)ccc21`, the values for the CLhep predicted in series [1], in series [2] and in series [4] were 39.9 mL/min/kg, 75.5 mL/min/kg and 11.3 mL/min/kg, respectively. In addition, the Papp in series [3] was determined as 1.55 ×10⁻⁶ cm/s.

For the molecule `CN(C)S(=O)(=O)c1cn(Cc2nc3cc(Cl)ccc3n2CCCS(C)(=O)=O)c2ccccc12`, the CLhep predicted in series [1] was 56.2 mL/min/kg; in series [2] it was 81.7 mL/min/kg; in [4] it was 21.9 mL/min/kg. For the same molecule, the Papp in series [3] stood at 1.55 ×10⁻⁶ cm/s.

Consider `CC(C)(O)CCCn1c(Cn2nc(S(C)(=O)=O)c3ccncc32)nc2cc(Cl)ccc21`, for which the clearance in [5] was 60.4 mL/min/kg. In [15], the bioavailability was determined as 29.3%. In addition, the results for the half-life in series [16] and in [13] were 307 min and 14.5 min, respectively. The CLhep predicted in [1] is 2.96 mL/min/kg; in [2], 20.7 mL/min/kg; in series [4], 5.17 mL/min/kg. Moreover, in series [17], the Tmax was determined as 15 min. Besides, the Cmax worked out at 340 ng/mL in series [18] and 1300 ng/mL in series [9]. Besides, the AUC(0-t) at 24 h stood at 552 ng·h/mL in [7] and 809 ng·h/mL in series [19]. In addition, the Papp in series [3] turned out to be 2.57 ×10⁻⁶ cm/s. In addition, the Vd in series [14] is 1.09 L/kg.

Regarding `CS(=O)(=O)c1nn(Cc2nc3cc(Cl)ccc3n2CC2COC2)c2cnccc12`, the F in the series on Mus musculus [20] came out at 23.8%. For the same molecule, the figures for the CLhep predicted in series [1], in series [2] and in series [4] were 19.8 mL/min/kg, 9 mL/min/kg and 3.9 mL/min/kg, respectively. The Cmax in series [21] amounted to 972 ng/mL; in [24] it was 1270 ng/mL. In addition, the Tmax in series [22] is 30 min. The Papp in series [3] came to 3.22 ×10⁻⁶ cm/s. The results for the AUC in the series on Mus musculus [23] and with Mus musculus [26] were 989 ng·h/mL and 2870 ng·h/mL, respectively. Further, the Vd in [25] was determined as 0.88 L/kg.

Values taken from ChEMBL document CHEMBL4130376, “Discovery of methylsulfonyl indazoles as potent and orally active respiratory syncytial Virus(RSV) fusion inhibitors” (Eur J Med Chem, 2017).
